Experiments:
[1] = target: GDP-bound NRAS wild-type protein (Homo sapiens, UniProt P01111); assay: Binding to NRAS by surface plasmon resonance (SPR), Single Cycle Kinetics; conditions: KD ratio, GDP-bound NRAS wild-type vs GDP-bound KRAS wild-type, SPR
[2] = target: GDP-bound HRAS wild-type protein (Homo sapiens, UniProt P01112); assay: Binding to HRAS by surface plasmon resonance (SPR), Single Cycle Kinetics; conditions: KD ratio, GDP-bound HRAS wild-type vs GDP-bound KRAS wild-type, SPR
Chain of GDP-bound HRAS wild-type protein (P01112 whole entry): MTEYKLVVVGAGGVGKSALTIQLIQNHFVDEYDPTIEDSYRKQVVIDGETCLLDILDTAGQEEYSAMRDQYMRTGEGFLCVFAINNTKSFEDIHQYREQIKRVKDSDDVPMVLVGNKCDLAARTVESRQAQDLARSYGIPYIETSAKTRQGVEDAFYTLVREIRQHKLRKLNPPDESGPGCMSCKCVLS

Chain of GDP-bound NRAS wild-type protein (P01111 whole entry): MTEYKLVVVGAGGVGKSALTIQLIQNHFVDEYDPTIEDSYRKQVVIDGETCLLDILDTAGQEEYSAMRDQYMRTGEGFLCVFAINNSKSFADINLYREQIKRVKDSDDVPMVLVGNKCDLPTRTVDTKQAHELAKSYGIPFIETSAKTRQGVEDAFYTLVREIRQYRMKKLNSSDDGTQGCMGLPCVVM

SMILES	NRAS/KRAS (ratio of KD value with respect to NRAS to KD value with respect to KRAS) [1]	HRAS/KRAS (ratio of KD value with respect to HRAS to KD value with respect to KRAS) [2]
CCO[C@@H]1C[C@H]2C(=O)NC3(CCC3)C(=O)N(C)[C@@H](C3CCCC3)C(=O)N(C)[C@H](C(=O)N(C)C)CC(=O)N(C)[C@@H](CC)C(=O)N[C@@H]([C@@H](C)CC)C(=O)N3CC[C@H]3C(=O)N(C)[C@H]3C[C@@H](C)CCN(C3=O)[C@@H](Cc3ccc(C(F)(F)F)cc3)C(=O)N(C)CC(=O)N[C@@H](CCc3cc(F)c(C(F)(F)F)c(F)c3)C(=O)N2C1 [PP1021]	C (A compound having a KD ratio of 0.1 or more and less than 3 is denoted as C)	B (a compound having 3 or more and less than 10 is denoted as B)
CCO[C@@H]1C[C@H]2C(=O)NC3(CCCC3)C(=O)N(C)[C@@H](C3CCCC3)C(=O)N(C)[C@H](C(=O)N(C)C)CC(=O)N(C)[C@@H](CC)C(=O)N[C@@H]([C@@H](C)CC)C(=O)N(C)CC(=O)N(C)[C@H]3C[C@@H](C)CCN(C3=O)[C@@H](Cc3ccc(C(F)(F)F)cc3)C(=O)N(C)CC(=O)N[C@@H](CCc3cc(F)c(C(F)(F)F)c(F)c3)C(=O)N2C1 [PP1022]	C (A compound having a KD ratio of 0.1 or more and less than 3 is denoted as C)	B (a compound having 3 or more and less than 10 is denoted as B)
CCO[C@@H]1C[C@H]2C(=O)NC3(CCCC3)C(=O)N(C)[C@@H](C3CCCC3)C(=O)N(C)[C@H](C(=O)N3CCOCC3)CC(=O)N(C)[C@@H](CC(C)C)C(=O)N[C@@H]([C@@H](C)CC)C(=O)N(C)CC(=O)N(C)[C@H]3C[C@@H](C)CCN(C3=O)[C@@H](Cc3ccc(C(F)(F)F)cc3)C(=O)N(C)CC(=O)N[C@@H](CCc3cc(F)c(C(F)(F)F)c(F)c3)C(=O)N2C1 [PP1024]	B (a compound having 3 or more and less than 10 is denoted as B)	B (a compound having 3 or more and less than 10 is denoted as B)
CCO[C@@H]1C[C@H]2C(=O)NC3(CCC3)C(=O)N(C)[C@@H](C3CCCC3)C(=O)N(C)[C@H](C(=O)N3CCOCC3)CC(=O)N(C)[C@@H](CC(C)C)C(=O)N[C@@H]([C@@H](C)CC)C(=O)N(C)CC(=O)N(C)[C@H]3C[C@@H](C)CCN(C3=O)[C@@H](Cc3ccc(C(F)(F)F)cc3)C(=O)N(C)CC(=O)N[C@@H](CCc3cc(F)c(C(F)(F)F)c(F)c3)C(=O)N2C1 [PP1025]	C (A compound having a KD ratio of 0.1 or more and less than 3 is denoted as C)	B (a compound having 3 or more and less than 10 is denoted as B)
CCO[C@@H]1C[C@H]2C(=O)NC3(CCC3)C(=O)N(C)[C@@H](C3CCCC3)C(=O)N(C)[C@H](C(=O)N3CCOCC3)CC(=O)N(C)[C@@H](CC(C)C)C(=O)N[C@@H]([C@@H](C)CC)C(=O)N3CC[C@H]3C(=O)N(C)[C@H]3C[C@@H](C)CCN(C3=O)[C@@H](Cc3ccc(C(F)(F)F)cc3)C(=O)N(C)CC(=O)N[C@@H](CCc3cc(F)c(C(F)(F)F)c(F)c3)C(=O)N2C1 [PP1026]	B (a compound having 3 or more and less than 10 is denoted as B)	B (a compound having 3 or more and less than 10 is denoted as B)
CCO[C@@H]1C[C@H]2C(=O)NC3(CCC3)C(=O)N(C)[C@@H](C3CCCC3)C(=O)N(C)[C@H](C(=O)N3CCOCC3)CC(=O)N(C)[C@@H](CC)C(=O)N[C@@H]([C@@H](C)CC)C(=O)N(C)CC(=O)N(C)[C@H]3C[C@@H](C)CCN(C3=O)[C@@H](Cc3ccc(C(F)(F)F)cc3)C(=O)N(C)CC(=O)N[C@@H](CCc3cc(F)c(C(F)(F)F)c(F)c3)C(=O)N2C1 [PP1027]	C (A compound having a KD ratio of 0.1 or more and less than 3 is denoted as C)	B (a compound having 3 or more and less than 10 is denoted as B)
CCO[C@@H]1C[C@H]2C(=O)NC3(CCC3)C(=O)N(C)[C@@H](C3CCCC3)C(=O)N(C)[C@H](C(=O)N3CCOCC3)CC(=O)N(C)[C@@H](CC)C(=O)N[C@@H]([C@@H](C)CC)C(=O)N3CC[C@H]3C(=O)N(C)[C@H]3C[C@@H](C)CCN(C3=O)[C@@H](Cc3ccc(C(F)(F)F)cc3)C(=O)N(C)CC(=O)N[C@@H](CCc3cc(F)c(C(F)(F)F)c(F)c3)C(=O)N2C1 [PP1028]	B (a compound having 3 or more and less than 10 is denoted as B)	B (a compound having 3 or more and less than 10 is denoted as B)
CCO[C@@H]1C[C@H]2C(=O)NC3(CCCC3)C(=O)N(C)[C@@H](C3CCCC3)C(=O)N(C)[C@H](C(=O)N3CCOCC3)CC(=O)N(C)[C@@H](CC)C(=O)N[C@@H]([C@@H](C)CC)C(=O)N(C)CC(=O)N(C)[C@H]3C[C@@H](C)CCN(C3=O)[C@@H](Cc3ccc(C(F)(F)F)cc3)C(=O)N(C)CC(=O)N[C@@H](CCc3cc(F)c(C(F)(F)F)c(F)c3)C(=O)N2C1 [PP1029]	C (A compound having a KD ratio of 0.1 or more and less than 3 is denoted as C)	B (a compound having 3 or more and less than 10 is denoted as B)
CCO[C@@H]1C[C@H]2C(=O)NC3(CCC3)C(=O)N(C)[C@@H](C3CCCC3)C(=O)N(C)[C@H](C(=O)N3CCOCC3)CC(=O)N(CC)[C@@H](CC(C)C)C(=O)N[C@@H]([C@@H](C)CC)C(=O)N(C)CC(=O)N(C)[C@H]3C[C@@H](C)CCN(C3=O)[C@@H](Cc3ccc(C(F)(F)F)cc3)C(=O)N(C)CC(=O)N[C@@H](CCc3cc(F)c(C(F)(F)F)c(F)c3)C(=O)N2C1 [PP1030]	B (a compound having 3 or more and less than 10 is denoted as B)	B (a compound having 3 or more and less than 10 is denoted as B)
CCO[C@@H]1C[C@H]2C(=O)NC3(CCCC3)C(=O)N(C)[C@@H](C3CCCC3)C(=O)N(C)[C@H](C(=O)N(C)C)CC(=O)N(C)[C@@H](CC(C)C)C(=O)N[C@@H]([C@@H](C)CC)C(=O)N(C)CC(=O)N(C)[C@H]3CC(C)=CCN(C3=O)[C@@H](Cc3ccc(C(F)(F)F)cc3)C(=O)N(C)CC(=O)N[C@@H](CCc3cc(F)c(C(F)(F)F)c(F)c3)C(=O)N2C1 [PP1031]	C (A compound having a KD ratio of 0.1 or more and less than 3 is denoted as C)	C (A compound having a KD ratio of 0.1 or more and less than 3 is denoted as C)
CCO[C@@H]1C[C@H]2C(=O)NC3(CCC3)C(=O)N(C)[C@@H](C3CCCC3)C(=O)N(C)[C@H](C(=O)N(C)C)CC(=O)N(C)[C@@H](CC(C)C)C(=O)N[C@@H]([C@@H](C)CC)C(=O)N(C)CC(=O)N(C)[C@H]3CC(C)=CCN(C3=O)[C@@H](Cc3ccc(C(F)(F)F)cc3)C(=O)N(C)CC(=O)N[C@@H](CCc3cc(F)c(C(F)(F)F)c(F)c3)C(=O)N2C1 [PP1032]	C (A compound having a KD ratio of 0.1 or more and less than 3 is denoted as C)	C (A compound having a KD ratio of 0.1 or more and less than 3 is denoted as C)
CCO[C@@H]1C[C@H]2C(=O)NC3(CCC3)C(=O)N(C)[C@@H](C3CCCC3)C(=O)N(C)[C@H](C(=O)N(C)C)CC(=O)N(C)[C@@H](CC(C)C)C(=O)N[C@@H]([C@@H](C)CC)C(=O)N3CC[C@H]3C(=O)N(C)[C@H]3CC(C)=CCN(C3=O)[C@@H](Cc3ccc(C(F)(F)F)cc3)C(=O)N(C)CC(=O)N[C@@H](CCc3cc(F)c(C(F)(F)F)c(F)c3)C(=O)N2C1 [PP1033]	C (A compound having a KD ratio of 0.1 or more and less than 3 is denoted as C)	C (A compound having a KD ratio of 0.1 or more and less than 3 is denoted as C)
CCO[C@@H]1C[C@H]2C(=O)NC3(CCC3)C(=O)N(C)[C@@H](C3CCCC3)C(=O)N(C)[C@H](C(=O)N(C)C)CC(=O)N(C)[C@@H](CC)C(=O)N[C@@H]([C@@H](C)CC)C(=O)N(C)CC(=O)N(C)[C@H]3CC(C)=CCN(C3=O)[C@@H](Cc3ccc(C(F)(F)F)cc3)C(=O)N(C)CC(=O)N[C@@H](CCc3cc(F)c(C(F)(F)F)c(F)c3)C(=O)N2C1 [PP1034]	C (A compound having a KD ratio of 0.1 or more and less than 3 is denoted as C)	C (A compound having a KD ratio of 0.1 or more and less than 3 is denoted as C)
CCO[C@@H]1C[C@H]2C(=O)NC3(CCC3)C(=O)N(C)[C@@H](C3CCCC3)C(=O)N(C)[C@H](C(=O)N(C)C)CC(=O)N(C)[C@@H](CC)C(=O)N[C@@H]([C@@H](C)CC)C(=O)N3CC[C@H]3C(=O)N(C)[C@H]3CC(C)=CCN(C3=O)[C@@H](Cc3ccc(C(F)(F)F)cc3)C(=O)N(C)CC(=O)N[C@@H](CCc3cc(F)c(C(F)(F)F)c(F)c3)C(=O)N2C1 [PP1035]	C (A compound having a KD ratio of 0.1 or more and less than 3 is denoted as C)	C (A compound having a KD ratio of 0.1 or more and less than 3 is denoted as C)
CCO[C@@H]1C[C@H]2C(=O)NC3(CCCC3)C(=O)N(C)[C@@H](C3CCCC3)C(=O)N(C)[C@H](C(=O)N(C)C)CC(=O)N(C)[C@@H](CC)C(=O)N[C@@H]([C@@H](C)CC)C(=O)N(C)CC(=O)N(C)[C@H]3CC(C)=CCN(C3=O)[C@@H](Cc3ccc(C(F)(F)F)cc3)C(=O)N(C)CC(=O)N[C@@H](CCc3cc(F)c(C(F)(F)F)c(F)c3)C(=O)N2C1 [PP1036]	C (A compound having a KD ratio of 0.1 or more and less than 3 is denoted as C)	C (A compound having a KD ratio of 0.1 or more and less than 3 is denoted as C)
